Test results published in ChEMBL document CHEMBL1139671, “Nuphar alkaloids with immediately apoptosis-inducing activity from Nuphar pumilum and their structural requirements for the activity” (2006).

Columns and labels:
Format in all cases: functional
B16-F10 [1] = experiment: Cytotoxicity against B16F10 cells at 0.03 uM after 72 hrs; conditions: Mus musculus, B16-F10, 72 h
U-937 [2] = experiment: Cytotoxicity against U937 cells at 10 uM after 48 hrs; conditions: Homo sapiens, U-937, 48 h
HT-1080 [3] = experiment: Cytotoxicity against HT1080 cells at 1.0 uM after 24 hrs; conditions: Homo sapiens, HT-1080, 24 h
HT-1080 [4] = experiment: Cytotoxicity against HT1080 cells at 1.0 uM after 72 hrs; conditions: Homo sapiens, HT-1080, 72 h
HT-1080 [5] = experiment: Cytotoxicity against HT1080 cells at 0.03 uM after 24 hrs; conditions: Homo sapiens, HT-1080, 24 h
HT-1080 [6] = experiment: Cytotoxicity against HT1080 cells at 10 uM after 24 hrs; conditions: Homo sapiens, HT-1080, 24 h
HT-1080 [7] = experiment: Cytotoxicity against HT1080 cells at 10 uM after 72 hrs; conditions: Homo sapiens, HT-1080, 72 h
U-937 [8] = experiment: Cytotoxicity against U937 cells at 0.03 uM after 72 hrs; conditions: Homo sapiens, U-937, 72 h
U-937 [9] = experiment: Cytotoxicity against U937 cells at 0.03 uM after 48 hrs; conditions: Homo sapiens, U-937, 48 h
U-937 [10] = experiment: Cytotoxicity against U937 cells at 0.1 uM after 72 hrs; conditions: Homo sapiens, U-937, 72 h
HT-1080 [11] = experiment: Cytotoxicity against HT1080 cells at 0.1 uM after 24 hrs; conditions: Homo sapiens, HT-1080, 24 h
HT-1080 [12] = experiment: Cytotoxicity against HT1080 cells at 1.0 uM after 48 hrs; conditions: Homo sapiens, HT-1080, 48 h
U-937 [13] = experiment: Cytotoxicity against U937 cells at 10 uM after 72 hrs; conditions: Homo sapiens, U-937, 72 h
B16-F10 [14] = experiment: Cytotoxicity against B16F10 cells at 0.1 uM after 72 hrs; conditions: Mus musculus, B16-F10, 72 h
HT-1080 [15] = experiment: Cytotoxicity against HT1080 cells at 0.1 uM after 48 hrs; conditions: Homo sapiens, HT-1080, 48 h
U-937 [16] = experiment: Cytotoxicity against U937 cells at 1.0 uM after 48 hrs; conditions: Homo sapiens, U-937, 48 h
U-937 [17] = experiment: Cytotoxicity against U937 cells at 10 uM after 24 hrs; conditions: Homo sapiens, U-937, 24 h
B16-F10 [18] = experiment: Cytotoxicity against B16F10 cells at 0.1 uM after 48 hrs; conditions: Mus musculus, B16-F10, 48 h
B16-F10 [19] = experiment: Cytotoxicity against B16F10 cells at 10 uM after 24 hrs; conditions: Mus musculus, B16-F10, 24 h
HT-1080 [20] = experiment: Cytotoxicity against HT1080 cells at 0.03 uM after 48 hrs; conditions: Homo sapiens, HT-1080, 48 h
B16-F10 [21] = experiment: Cytotoxicity against B16F10 cells at 0.03 uM after 24 hrs; conditions: Mus musculus, B16-F10, 24 h
HT-1080 [22] = experiment: Cytotoxicity against HT1080 cells at 0.03 uM after 72 hrs; conditions: Homo sapiens, HT-1080, 72 h
B16-F10 [23] = experiment: Cytotoxicity against B16F10 cells at 0.03 uM after 48 hrs; conditions: Mus musculus, B16-F10, 48 h
U-937 [24] = experiment: Cytotoxicity against U937 cells at 0.03 uM after 24 hrs; conditions: Homo sapiens, U-937, 24 h
HT-1080 [25] = experiment: Cytotoxicity against HT1080 cells at 0.1 uM after 72 hrs; conditions: Homo sapiens, HT-1080, 72 h
B16-F10 [26] = experiment: Cytotoxicity against B16F10 cells at 1.0 uM after 72 hrs; conditions: Mus musculus, B16-F10, 72 h
U-937 [27] = experiment: Cytotoxicity against U937 cells at 1.0 uM after 24 hrs; conditions: Homo sapiens, U-937, 24 h
B16-F10 [28] = experiment: Cytotoxicity against B16F10 cells at 1.0 uM after 48 hrs; conditions: Mus musculus, B16-F10, 48 h
U-937 [29] = experiment: Cytotoxicity against U937 cells at 0.1 uM after 24 hrs; conditions: Homo sapiens, U-937, 24 h
U-937 [30] = experiment: Cytotoxicity against U937 cells at 0.1 uM after 48 hrs; conditions: Homo sapiens, U-937, 48 h
B16-F10 [31] = experiment: Cytotoxicity against B16F10 cells at 1.0 uM after 24 hrs; conditions: Mus musculus, B16-F10, 24 h
U-937 [32] = experiment: Cytotoxicity against U937 cells at 1.0 uM after 72 hrs; conditions: Homo sapiens, U-937, 72 h
B16-F10 [33] = experiment: Cytotoxicity against B16F10 cells at 0.1 uM after 24 hrs; conditions: Mus musculus, B16-F10, 24 h
B16-F10 [34] = experiment: Cytotoxicity against B16F10 cells at 10 uM after 72 hrs; conditions: Mus musculus, B16-F10, 72 h
B16-F10 [35] = experiment: Cytotoxicity against B16F10 cells at 10 uM after 48 hrs; conditions: Mus musculus, B16-F10, 48 h
HT-1080 [36] = experiment: Cytotoxicity against HT1080 cells at 10 uM after 48 hrs; conditions: Homo sapiens, HT-1080, 48 h

`CC[C@@]1(O)C(=O)OCc2c1cc1n(c2=O)Cc2cc3ccccc3nc2-1` [CAMPTOTHECIN] gave an inhibition at 0.03 µM (B16-F10 [1]) of 33.4%, an inhibition at 10 µM (U-937 [2]) of 98.2% and an inhibition at 1 µM (HT-1080 [3]) of 49.5%. The inhibition at 1 µM (HT-1080 [4]) was 65.8%, the inhibition at 0.03 µM (HT-1080 [5]) was -3.8% and the inhibition at 10 µM (HT-1080 [6]) was 62%. The inhibition at 10 µM (HT-1080 [7]) was 93.8%, the inhibition at 0.03 µM (U-937 [8]) was 78.5% and the inhibition at 0.03 µM (U-937 [9]) was 61.9%. It also gave an inhibition at 0.1 µM (U-937 [10]) of 95.3%, an inhibition at 0.1 µM (HT-1080 [11]) of -0.4% and an inhibition at 1 µM (HT-1080 [12]) of 77%. The inhibition at 10 µM (U-937 [13]) was 98%, the inhibition at 0.1 µM (B16-F10 [14]) was 76.9% and the inhibition at 0.1 µM (HT-1080 [15]) was -11.7%. For the same molecule, the inhibition at 1 µM (U-937 [16]) was 94.6%, the inhibition at 10 µM (U-937 [17]) was 75% and the inhibition at 0.1 µM (B16-F10 [18]) was 39.1%. It also gave an inhibition at 10 µM (B16-F10 [19]) of 60.6%, an inhibition at 0.03 µM (HT-1080 [20]) of -7.1% and an inhibition at 0.03 µM (B16-F10 [21]) of -1.9%. The inhibition at 0.03 µM (HT-1080 [22]) was -3.2%, the inhibition at 0.03 µM (B16-F10 [23]) was 7.5% and the inhibition at 0.03 µM (U-937 [24]) was 7.1%. It also gave an inhibition at 0.1 µM (HT-1080 [25]) of 5.4%, an inhibition at 1 µM (B16-F10 [26]) of 93.5% and an inhibition at 1 µM (U-937 [27]) of 75.8%. The inhibition at 1 µM (B16-F10 [28]) was 83.2%, the inhibition at 0.1 µM (U-937 [29]) was 46% and the inhibition at 0.1 µM (U-937 [30]) was 90.6%. For the same molecule, the inhibition at 1 µM (B16-F10 [31]) was 47.8%, the inhibition at 1 µM (U-937 [32]) was 98.2% and the inhibition at 0.1 µM (B16-F10 [33]) was 16.2%. The inhibition at 10 µM (B16-F10 [34]) was 98.1%, the inhibition at 10 µM (B16-F10 [35]) was 94.7% and the inhibition at 10 µM (HT-1080 [36]) was 93.1%.
With `COc1cc([C@H]2Oc3c(OC)cc(CCCO)cc3[C@@H]2CO)ccc1O` [DIHYDRODEHYDRODICONIFERY ALCOHOL] the inhibition at 1 µM (HT-1080 [4]) was 5.2%, the inhibition at 10 µM (HT-1080 [7]) was 11.9% and the inhibition at 10 µM (U-937 [13]) was 13.4%. For the same molecule, the inhibition at 0.1 µM (B16-F10 [14]) was -2.4%, the inhibition at 0.1 µM (HT-1080 [25]) was 8.9% and the inhibition at 1 µM (B16-F10 [26]) was -5.3%. It also gave an inhibition at 1 µM (U-937 [32]) of 9.3% and an inhibition at 10 µM (B16-F10 [34]) of -6.5%.
`C[C@@H]1CC[C@@H](c2ccoc2)N2C[C@]3(CC[C@@H]12)CS[C@]1(CC[C@H]2[C@H](C)CC[C@@H](c4ccoc4)N2C1)C3` [NEOTHIOBINUPHARIDINE] was tested, and the inhibition at 10 µM (U-937 [2]) was 65.6%, the inhibition at 1 µM (HT-1080 [4]) was -0.8% and the inhibition at 10 µM (HT-1080 [7]) was 38%. It also gave an inhibition at 1 µM (HT-1080 [12]) of -4.1%, an inhibition at 10 µM (U-937 [13]) of 40.1% and an inhibition at 0.1 µM (B16-F10 [14]) of 8.9%. The inhibition at 0.1 µM (HT-1080 [15]) was -1%, the inhibition at 1 µM (U-937 [16]) was 5.4% and the inhibition at 10 µM (U-937 [17]) was 50.7%. For the same molecule, the inhibition at 0.1 µM (B16-F10 [18]) was 4.4%, the inhibition at 0.1 µM (HT-1080 [25]) was -3.4% and the inhibition at 1 µM (B16-F10 [26]) was 4%. For the same molecule, the inhibition at 1 µM (U-937 [27]) was 5.2%, the inhibition at 1 µM (B16-F10 [28]) was -8.9% and the inhibition at 1 µM (U-937 [32]) was -1.2%. The inhibition at 10 µM (B16-F10 [34]) was 30.2%, the inhibition at 10 µM (B16-F10 [35]) was 24.7% and the inhibition at 10 µM (HT-1080 [36]) was 7.5%.
Molecule `C[C@H]1CC[C@H]2[C@H](C)CC[C@@H](c3ccoc3)[N+]2([O-])C1` (some centres undefined) [NUPHARIDINE] has an inhibition at 1 µM (HT-1080 [4]) of -9%, an inhibition at 10 µM (HT-1080 [7]) of -9% and an inhibition at 10 µM (U-937 [13]) of 11.5%. The inhibition at 0.1 µM (B16-F10 [14]) was 0.6%, the inhibition at 0.1 µM (HT-1080 [25]) was -3.3% and the inhibition at 1 µM (B16-F10 [26]) was 5.3%. The inhibition at 1 µM (U-937 [32]) was 8% and the inhibition at 10 µM (B16-F10 [34]) was 4.1%.
For `C[C@@H]1CC[C@@H](c2ccoc2)N2C[C@](C)(O)CC[C@@H]12` [NUPHAROLUTINE], the inhibition at 1 µM (HT-1080 [4]) was -13.2%, the inhibition at 10 µM (HT-1080 [7]) was -16.7% and the inhibition at 10 µM (U-937 [13]) was 2.8%. The inhibition at 0.1 µM (B16-F10 [14]) was -3.1%, the inhibition at 0.1 µM (HT-1080 [25]) was -12.9% and the inhibition at 1 µM (B16-F10 [26]) was -1.2%. For the same molecule, the inhibition at 1 µM (U-937 [32]) was 12.5% and the inhibition at 10 µM (B16-F10 [34]) was -0.9%.
`C[C@@H]1CC[C@@H](c2ccoc2)N2C[C@@]3(CC[C@@H]12)CS[C@@]1(CC[C@H]2[C@H](C)CC[C@@H](c4ccoc4)N2C1)C3` [THIOBINUPHARIDINE] gave an inhibition at 1 µM (HT-1080 [4]) of 6.3%, an inhibition at 10 µM (HT-1080 [7]) of -11.7% and an inhibition at 10 µM (U-937 [13]) of 10.9%. For the same molecule, the inhibition at 0.1 µM (B16-F10 [14]) was 6.8%, the inhibition at 0.1 µM (HT-1080 [25]) was 9.9% and the inhibition at 1 µM (B16-F10 [26]) was 7.9%. The inhibition at 1 µM (U-937 [32]) was 6.9% and the inhibition at 10 µM (B16-F10 [34]) was 4.4%.
`C[C@@H]1CC[C@@H](c2ccoc2)N2C[C@@]3(CC[C@@H]12)CS[C@]1(CC[C@H]2[C@H](C)CC[C@@H](c4ccoc4)N2C1)C3` [THIONUPHLUTINE B] was tested, and the inhibition at 1 µM (HT-1080 [4]) was 0.9%, the inhibition at 10 µM (HT-1080 [7]) was -12% and the inhibition at 10 µM (U-937 [13]) was 7.8%. For the same molecule, the inhibition at 0.1 µM (B16-F10 [14]) was 1.7%, the inhibition at 0.1 µM (HT-1080 [25]) was -10.8% and the inhibition at 1 µM (B16-F10 [26]) was -2.2%. The inhibition at 1 µM (U-937 [32]) was 9.1% and the inhibition at 10 µM (B16-F10 [34]) was 2.2%.
